# Measured values reported in PubChem BioAssay (NCI).
# “And” between values parts separate entries of the source, which are not always exact repeats. Equal entries are not always repeated.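 Dose response: 5 concentrations. Exposure: 48 h. Format: 96-well plates. Endpoint: linear interpolation; highest concentration if not reached. GI50 is the concentration that inhibits growth by half. TGI denotes the concentration required for complete inhibition of growth.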
# How the values were obtained:
# Experiment in all cases: NCI anticancer screen, dose series, 48 h
# [1] = system: SK-MEL-2 melanoma
# [2] = system: CCRF-CEM leukemia
# [3] = system: SF-295 CNS
# [4] = system: RPMI-8226 leukemia
# [5] = system: NCI-H522 lung
# [6] = system: OVCAR-4 ovarian
# [7] = system: MALME-3M melanoma
# [8] = system: DU-145 prostate
# [9] = system: MDA-MB-231 breast
# [10] = system: HCT-15 colon
# [11] = system: SN12C renal
# [12] = system: SF-268 CNS
# [13] = system: HOP-62 NSCLC
# [14] = system: HL-60(TB) leukemia
# [15] = system: A498 renal
# [16] = system: SNB-19 CNS
# [17] = system: UACC-257 melanoma
# [18] = system: SK-OV-3 ovarian
# [19] = system: COLO 205 colon
# [20] = system: PC-3 prostate
# [21] = system: NCI-H23 lung
# [22] = system: CAKI-1 renal
# [23] = system: SR leukemia
# [24] = system: HOP-92 NSCLC
# [25] = system: SK-MEL-5 melanoma
# [26] = system: HT29 colon
# [27] = system: K-562 leukemia
# [28] = system: UO-31 renal
# [29] = system: OVCAR-3 ovarian
# [30] = system: U251 CNS
# [31] = system: MOLT-4 leukemia
# [32] = system: HCT-116 colon
# [33] = system: RXF 393 renal
# [34] = system: NCI-H460 lung
# [35] = system: OVCAR-8 ovarian
# [36] = system: SK-MEL-28 melanoma
# [37] = system: HCC-2998 colon
# [38] = system: MDA-MB-435
# [39] = system: M14 melanoma
# [40] = system: 786-0 renal
# [41] = system: BT-549 breast
# [42] = system: NCI/ADR-RES ovarian
# [43] = system: LOX IMVI melanoma
# [44] = system: OVCAR-5 ovarian
# [45] = system: UACC-62 melanoma
# [46] = system: SNB-75 CNS
# [47] = system: MCF7 breast
# [48] = system: ACHN renal
# [49] = system: T-47D breast
# [50] = system: SF-539 CNS
# [51] = system: KM12 colon
# [52] = system: SW-620 colon
# [53] = system: IGROV1 ovarian
# [54] = system: TK-10 renal
# [55] = system: NCI-H226 lung
# [56] = system: HS 578T breast
# [57] = system: EKVX NSCLC
# [58] = system: A549 NSCLC
smiles,measurement,setting,value
c1ccc(Nn2c(CCCCCCCCc3nnc(COc4ccccc4)n3Nc3ccccc3)nnc2COc2ccccc2)cc1,GI50,[1],13.8 µM and 25.5 µM
same,TGI,[1],> 63.4 µM and 252 µM
same,GI50,[2],2.91 µM
same,GI50,[3],1.24 µM and 7.51 µM
same,TGI,[4],> 300 µM
same,TGI,[5],> 91.8 µM
same,GI50,[6],25.8 µM and 88.1 µM
same,TGI,[6],> 300 µM
same,GI50,[7],27.5 µM and 25.7 µM
same,TGI,[7],> 300 µM
same,GI50,[8],35 µM and > 300 µM
same,TGI,[8],> 300 µM
same,GI50,[9],12.4 µM
same,TGI,[9],> 300 µM
same,GI50,[10],9.88 µM and 5.62 µM
same,TGI,[10],> 300 µM
same,GI50,[11],35.5 µM and 66.6 µM
same,TGI,[11],> 300 µM
same,GI50,[12],23.5 µM and 70.9 µM
same,TGI,[12],> 300 µM
same,TGI,[13],> 300 µM
same,GI50,[14],2.55 µM and 9.66 µM
same,TGI,[14],> 300 µM
same,GI50,[15],37.6 µM
same,TGI,[15],> 300 µM
same,GI50,[16],107 µM
same,TGI,[16],> 300 µM
same,TGI,[17],> 86.5 µM
same,GI50,[18],> 300 µM
same,TGI,[18],> 300 µM
same,GI50,[19],3.18 µM and 19.6 µM
same,TGI,[19],8.81 µM and 77.1 µM
same,GI50,[20],8.32 µM and 23.9 µM
same,TGI,[20],> 300 µM
same,GI50,[21],37.2 µM and 76.8 µM
same,TGI,[21],> 300 µM
same,GI50,[22],5.11 µM and 2.73 µM
same,TGI,[22],59.1 µM and 34.8 µM
same,GI50,[23],8.48 µM and 7.33 µM
same,TGI,[23],> 300 µM
same,GI50,[24],30.7 µM and 41.9 µM
same,TGI,[24],267 µM
same,GI50,[25],6.41 µM and 50 µM
same,TGI,[25],> 300 µM
same,GI50,[26],41.9 µM
same,TGI,[26],> 300 µM
same,GI50,[27],3.71 µM and 2.17 µM
same,TGI,[27],> 300 µM
same,GI50,[28],5.27 µM and 8.49 µM
same,TGI,[28],> 300 µM
same,GI50,[29],16.5 µM and 41.2 µM
same,TGI,[29],> 300 µM
same,GI50,[30],39.6 µM and 144 µM
same,TGI,[30],> 300 µM
same,GI50,[31],14.5 µM
same,TGI,[31],> 300 µM
same,GI50,[32],51.7 µM
same,TGI,[32],> 300 µM
same,GI50,[33],157 µM
same,TGI,[33],98 µM and > 300 µM
same,GI50,[34],6.34 µM and 12.9 µM
same,TGI,[34],> 300 µM
same,GI50,[35],40 µM and 23.9 µM
same,TGI,[35],> 300 µM
same,GI50,[36],22.9 µM and 57.1 µM
same,TGI,[36],> 300 µM
same,GI50,[37],16.2 µM and 15.7 µM
same,TGI,[37],> 72.6 µM and 186 µM
same,GI50,[38],5.34 µM and 11.9 µM
same,TGI,[38],> 300 µM
same,GI50,[39],6.24 µM and 4.23 µM
same,TGI,[39],> 60.1 µM and 50.2 µM
same,GI50,[40],29 µM and 36.3 µM
same,TGI,[40],> 300 µM
same,GI50,[41],33 µM
same,TGI,[41],> 300 µM
same,GI50,[42],11.5 µM and 20.6 µM
same,TGI,[42],> 300 µM
same,GI50,[43],5.35 µM and 4.04 µM
same,TGI,[43],> 300 µM
same,GI50,[44],8.56 µM and 10.2 µM
same,TGI,[44],> 300 µM
same,GI50,[45],1.28 µM
same,TGI,[45],> 40.8 µM and 68 µM
same,GI50,[46],48.8 µM and 49.2 µM
same,TGI,[46],> 300 µM
same,GI50,[47],18.3 µM
same,TGI,[47],> 300 µM
same,GI50,[48],2.89 µM and 5.83 µM
same,TGI,[48],> 300 µM
same,GI50,[49],12.3 µM and 7.31 µM
same,TGI,[49],> 300 µM
same,GI50,[50],7.23 µM
same,TGI,[50],> 60.5 µM and 20 µM
same,GI50,[51],5.7 µM and 2.69 µM
same,TGI,[51],> 300 µM
same,GI50,[52],9.55 µM and 11.8 µM
same,TGI,[52],> 300 µM
same,GI50,[53],17.7 µM and 46 µM
same,TGI,[53],> 300 µM
same,GI50,[54],45.7 µM and 162 µM
same,TGI,[54],> 300 µM
same,GI50,[55],15.6 µM and 70.9 µM
same,TGI,[55],> 300 µM
same,GI50,[56],35.5 µM
same,TGI,[56],> 300 µM
O=C(/C=C/c1cccc([N+](=O)[O-])c1)c1ccc(O)c(CN2CCN(c3cc4c(cc3F)c(=O)c(C(=O)O)cn4C3CC3)CC2)c1,GI50,[1],2.35 µM
same,TGI,[1],5.17 µM
same,GI50,[2],1.6 µM
same,TGI,[2],10.8 µM
same,GI50,[3],1.88 µM
same,TGI,[3],3.9 µM
same,GI50,[4],0.418 µM
same,TGI,[4],2.82 µM
same,GI50,[6],1.61 µM
same,TGI,[6],3.07 µM
same,GI50,[7],1.93 µM
same,TGI,[7],4.25 µM
same,GI50,[8],1.41 µM
same,TGI,[8],2.74 µM
same,GI50,[9],1.89 µM
same,TGI,[9],4.02 µM
same,GI50,[11],1.75 µM
same,TGI,[11],3.45 µM
same,GI50,[12],2.15 µM
same,TGI,[12],5.58 µM
same,GI50,[13],3.47 µM
same,TGI,[13],16.8 µM
same,GI50,[14],2.24 µM
same,TGI,[14],6.58 µM
same,GI50,[15],1.35 µM
same,TGI,[15],2.84 µM
same,GI50,[16],1.34 µM
same,TGI,[16],2.79 µM
same,GI50,[17],1.69 µM
same,TGI,[17],3.35 µM
same,GI50,[18],5 µM
same,TGI,[18],> 100 µM
same,GI50,[20],1.85 µM
same,TGI,[20],5.37 µM
same,GI50,[21],1.81 µM
same,TGI,[21],3.83 µM
same,GI50,[22],1.63 µM
same,TGI,[22],3.24 µM
same,GI50,[23],0.398 µM
same,TGI,[23],53.2 µM
same,GI50,[24],2.17 µM
same,TGI,[24],9.97 µM
same,GI50,[25],1.7 µM
same,TGI,[25],3.25 µM
same,GI50,[26],2.44 µM
same,TGI,[26],6.25 µM
same,GI50,[27],0.404 µM
same,TGI,[27],> 100 µM
same,GI50,[28],1.29 µM
same,TGI,[28],2.67 µM
same,GI50,[57],1.71 µM
same,TGI,[57],3.32 µM
same,GI50,[29],1.77 µM
same,TGI,[29],3.41 µM
same,GI50,[30],1.17 µM
same,TGI,[30],2.62 µM
same,GI50,[31],2.25 µM
same,TGI,[31],8.41 µM
same,GI50,[32],0.494 µM
same,TGI,[32],1.81 µM
same,GI50,[33],1.51 µM
same,TGI,[33],2.99 µM
same,GI50,[34],3.43 µM
same,TGI,[34],19.3 µM
same,GI50,[35],2.52 µM
same,TGI,[35],8.77 µM
same,GI50,[36],1.75 µM
same,TGI,[36],3.2 µM
same,GI50,[37],1.92 µM
same,TGI,[37],3.43 µM
same,GI50,[38],1.67 µM
same,TGI,[38],3.21 µM
same,GI50,[40],1.57 µM
same,TGI,[40],3 µM
same,GI50,[41],1.54 µM
same,TGI,[41],3.31 µM
same,GI50,[42],2.85 µM
same,TGI,[42],9.34 µM
same,GI50,[43],0.364 µM
same,TGI,[43],1.41 µM
same,GI50,[44],1.75 µM
same,TGI,[44],3.35 µM
same,GI50,[45],1.66 µM
same,TGI,[45],3.45 µM
same,GI50,[46],1.22 µM
same,TGI,[46],2.51 µM
same,GI50,[47],0.332 µM
same,TGI,[47],1.44 µM
same,GI50,[48],1.4 µM
same,TGI,[48],2.7 µM
same,GI50,[49],1.85 µM
same,TGI,[49],4.99 µM
same,GI50,[50],1.19 µM
same,TGI,[50],2.47 µM
same,GI50,[51],1.33 µM
same,TGI,[51],3.4 µM
same,GI50,[52],1.1 µM
same,TGI,[52],3.65 µM
same,GI50,[54],2.1 µM
same,TGI,[54],5.59 µM
same,GI50,[58],3.1 µM
same,TGI,[58],17.2 µM
same,GI50,[55],3.49 µM
same,TGI,[55],15.2 µM
same,GI50,[56],2.43 µM
same,TGI,[56],7.11 µM
